Data: PMC3652819, “A Cocoa Peptide Protects Caenorhabditis elegans from Oxidative Stress and β-Amyloid Peptide Toxicity” (PLoS ONE, 2013)
Residues, ends and D or L forms follow the SMILES beside them. No end group written: not given here. *: point of attachment. Cbz = O=C(OCc1ccccc1)*

Experiments:
[1] = tested on: C. elegans strain CL4176 (Aβ1–42); assay: body paralysis assay in transgenic C. elegans CL4176 expressing human Aβ1-42; assay type: in vivo, Caenorhabditis elegans; conditions: for Mid Paralysis (h), time when 50% of worms were paralyzed / % of worms non paralyzed at onset of paralysis / Onset Paralysis, time: peptides 1 µg/mL, ZPP 1 µM, “Barquillo” 10 µL/mL, fractions 10 µL/mL; for Mid Paralysis (h), time when 50% of worms were paralyzed: NGM 47 h; for % of worms non paralyzed at onset of paralysis: at the onset time, NGM 85.8%; for Onset Paralysis, time: time after Aβ42 induction, NGM 41 h; for effect on body paralysis (in words): compared with NGM controls
Protocol: Mutant strain GR1321 (tph-1(mg280)) was used in body fat reduction experiments. All the strains were obtained from the Caenorhabditis Genetics Center (University of Minnesota). Caenorhabditis elegans N2 and tph-1 were routinely propagated on Nematode Growth Medium (NGM) plates with Escherichia coli strain OP50 as a food source at 20°C, while CL4176 was maintained at 16°C. Worms were synchronized by isolating eggs from gravid adults at 20°C (N2 and tph-1) or 16°C (CL4176), and eggs were hatched overnight in NGM plates. In the experiments, the worms were fed with the different compounds from egg through to adult stages, and transferred to new plates every two days. […] ZPP (1 µM) was used as an internal positive control. Transgene expression was induced by up-shifting the temperature from 16°C to 25°C, starting 24 h after egg lying and maintained for 24 h. Then worms were incubated at 20°C until all the worms in the experiment became paralyzed. […] Paralysis in induced worms was compared with non-induced worms (maintained at 16°C until the end of the paralysis assay). Experiments were carried out in triplicate.

[2] = tested on: C. elegans strain CL4176 (Aβ1–42); conditions: ref [36], [37]; cited from earlier work
Description: (§1) This could be explained by the release of bioactive peptides from the protein fraction of the by-product.

Aβ42 = conditions: C. elegans; ref [36], [37]; cited from earlier work
Description: as §1

[3] = molecular target: T1, prolyl endopeptidase (PEP) (Elizabethkingia meningoseptica, UniProt P27028); assay: biochemical
T1 construct: purchased Seikagaku Corporation, Tokyo, Japan
T1 sequence (P27028 21-705): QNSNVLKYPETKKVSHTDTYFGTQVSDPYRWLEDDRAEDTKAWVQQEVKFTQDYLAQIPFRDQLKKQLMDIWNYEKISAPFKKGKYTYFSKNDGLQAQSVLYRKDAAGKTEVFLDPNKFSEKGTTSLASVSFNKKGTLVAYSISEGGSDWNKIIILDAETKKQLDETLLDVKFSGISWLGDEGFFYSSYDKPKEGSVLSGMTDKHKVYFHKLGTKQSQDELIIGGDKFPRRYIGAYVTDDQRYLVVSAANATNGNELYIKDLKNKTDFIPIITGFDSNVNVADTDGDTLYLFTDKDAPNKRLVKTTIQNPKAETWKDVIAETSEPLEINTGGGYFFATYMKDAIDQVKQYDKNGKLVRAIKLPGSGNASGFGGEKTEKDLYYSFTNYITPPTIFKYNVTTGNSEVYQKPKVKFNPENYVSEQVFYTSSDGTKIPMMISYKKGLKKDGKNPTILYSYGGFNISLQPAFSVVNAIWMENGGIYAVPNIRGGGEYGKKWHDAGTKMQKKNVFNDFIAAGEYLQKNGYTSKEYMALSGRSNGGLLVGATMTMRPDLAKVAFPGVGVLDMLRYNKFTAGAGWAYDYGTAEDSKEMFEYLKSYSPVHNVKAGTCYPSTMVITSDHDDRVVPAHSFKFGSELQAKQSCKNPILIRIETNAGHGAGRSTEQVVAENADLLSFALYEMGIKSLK
Protocol: Prolyl endopeptidase (PEP) activity was determined using a previously described method. Reaction was performed by addition of 0.1 U/ml of PEP (Seikagaku Corporation, Tokyo, Japan) to a 100 mM phosphate buffer pH 7 containing 2 mM of Z-Gly-Pro-p-nitroaniline (Sigma, Madrid, Spain). Samples were incubated for 20 min at 30°C and then the reaction was stopped by adding a volume of 10.5% Triton X-100 in 1 M sodium acetate buffer pH 4. The amount of ρ-nitroaniline released was quantified by spectrophotometry at 410 nm. The inhibitory activity of PEP was determined by adding 100 µl of each sample obtained during the purification process to the enzymatic reaction. Z-Prolyl-Prolinal (ZPP) (0.000426 ppm, Biomol, Plymouth Meeting, USA) was used as positive control of inhibition.

[4] = tested on: C. elegans wild-type strain N2; assay: survival of wild-type C. elegans N2 after H2O2-induced oxidative stress; assay type: in vivo, Caenorhabditis elegans; conditions: compared with NGM
Protocol: Experiments of oxidative stress, body fat reduction and microarrays were carried out with the wild-type strain N2 (Bristol). Paralysis assays were performed with the transgenic strain CL4176 (smg-1^ts [pAF29(myo-3/Aβ1–42/let UTR)+pRF4(rol-6(su10069))]). Paralysis is induced in strain CL4176 by expression of a muscle-specific Aβ1–42, which depends on up-shifting temperature from 16 to 25°C [21], [22]. Mutant strain GR1321 (tph-1(mg280)) was used in body fat reduction experiments. All the strains were obtained from the Caenorhabditis Genetics Center (University of Minnesota).
Caenorhabditis elegans N2 and tph-1 were routinely propagated on Nematode Growth Medium (NGM) plates with Escherichia coli strain OP50 as a food source at 20°C, while CL4176 was maintained at 16°C. Worms were synchronized by isolating eggs from gravid adults at 20°C (N2 and tph-1) or 16°C (CL4176), and eggs were hatched overnight in NGM plates. In the experiments, the worms were fed with the different compounds from egg through to adult stages, and transferred to new plates every two days. […]
Viability of C. elegans was assessed after oxidative stress and differences between nematodes cultured in control and treatment conditions were evaluated by means of one-way analysis of variance (ANOVA) using Statgraphics plus (version 5.1) software (Manugistics, Rockville, MD).

Compound	Mid Paralysis (h), time when 50% of worms were paralyzed [1] [h]	% of worms non paralyzed at onset of paralysis [1] [%]	Onset Paralysis, time [1] [h]	IC50 [3] [µM]	effect on worm survival after oxidative stress (in words) [4]	effect on body paralysis (in words) [1]	also measured
O=C[C@@H]1CCCN1C(=O)[C@@H]1CCCN1C(=O)OCc1ccccc1 [ZPP, Z-Prolyl-Prolinal, reference compound] (Cbz-Pro-Pro-aldehyde)	>49	96.7	41	–	–	–	–
COC(=O)[C@H]1[C@H]2C[C@@H]3c4[nH]c5cc(OC)ccc5c4CCN3C[C@H]2C[C@@H](OC(=O)c2cc(OC)c(OC)c(OC)c2)[C@@H]1OC [reserpine]	–	–	–	–	–	–	effect on paralysis (in words) [2]: effect on delaying paralysis; effect on Aβ peptide expression levels (in words) (Aβ42): no effects were observed in Aβ peptide expression levels
DNYDNSAGKWWVT [13L, DNYDNSAGKWWVT]	–	–	–	122	–	–	–
GVKGEPGPNTL [11R, GVKGEPGPNTL]	49	89.9	41	–	significant protection upon oxidative stress	ability to ameliorate Aβ-induced paralysis	–
NYDNSAGKW [9L, NYDNSAGKW]	–	–	–	484	–	–	–
TDGVKGEPGPNTL [13R, synthesized peptide from the 21 kDa seed protein of Theobroma cacao]	49	83.4	41	–	did not produce a significant effect on worm survival rates	ability to ameliorate Aβ-induced paralysis	inhibitory activity (IC50) against PEP enzyme ([3]; synthetic peptides, 0.1 U/ml PEP, 2 mM Z-Gly-Pro-p-nitroaniline, pH 7, 20 min at 30°C, 410 nm): > 1.48 mg/mL
